In ChEMBL document CHEMBL4000182, “Structure-activity relationships of benzothiazole GPR35 antagonists” (Bioorg Med Chem Lett, 2017):
pEC50, pIC50: −log10 of the molar value.

Tests used:
[1] = target: T1, G-protein coupled receptor 35 (Homo sapiens, UniProt Q9HC97); assay: Antagonist activity at human N-terminal HA-tagged GPR35a expressed in human U2OS cells co-expressing GFP-fused beta arrestin-2 assessed as inhibition of agonist induced redistribution of GFP-fused beta arrestin-2 preincubated for 15 mins followed by agonist addition by fluorescence assay; assay type: cell-based
[2] = target: T1, G-protein coupled receptor 35; assay: Antagonist activity at HA tagged GPR35a (unknown origin) expressed in human U2OS cells co-expressing GFP-fused beta arrestin-2 assessed as inhibition of zaprinast induced effect; assay type: cell-based
[3] = target: T1, G-protein coupled receptor 35; assay: Antagonist activity at GPR35 (unknown origin)

T1 sequence (Q9HC97 whole entry, the tested form may be a part): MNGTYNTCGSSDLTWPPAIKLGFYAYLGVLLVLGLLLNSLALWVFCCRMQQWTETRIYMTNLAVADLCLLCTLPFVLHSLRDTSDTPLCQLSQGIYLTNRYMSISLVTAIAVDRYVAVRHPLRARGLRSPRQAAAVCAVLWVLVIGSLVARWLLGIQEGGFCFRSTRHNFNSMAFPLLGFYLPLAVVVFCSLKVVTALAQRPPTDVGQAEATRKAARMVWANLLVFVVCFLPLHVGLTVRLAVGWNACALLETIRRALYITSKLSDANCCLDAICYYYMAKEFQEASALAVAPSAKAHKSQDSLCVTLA

O=C(Nc1ccc2nc(SCc3ccc(Cl)cc3)sc2c1)c1ccccc1C(=O)N1CCOCC1
pEC50 [1]: 6.26 | pIC50 [2]: 5.34

O=C(Nc1ccc2nc(S(=O)(=O)Cc3ccc(Cl)cc3)sc2c1)c1ccccc1C(=O)N1CCOCC1
pIC50 [2]: 5.28

O=C(O)c1cc(=O)c2ccccc2[nH]1 [TRANSTORINE]
pIC50 [3]: 4.41

O=C(Nc1ccc2nc(SCc3ccc(Cl)cc3)sc2c1)c1ccccc1C(=O)N1CCCCC1
pIC50 [2]: < 4.52

O=C(Nc1ccc2nc([S+]([O-])Cc3ccc(Cl)cc3)sc2c1)c1ccccc1C(=O)N1CCOCC1 (stereo not drawn)
pIC50 [2]: 4.89

O=C(Nc1ccc2nc(SCc3ccncc3)sc2c1)c1ccccc1C(=O)N1CCOCC1
pIC50 [2]: < 4.52

O=C(Nc1ccc2nc(SCc3ccccc3)sc2c1)c1ccccc1C(=O)N1CCOCC1
pIC50 [2]: 5.14

O=C(Nc1ccc2nc(SCc3ccc(Cl)cc3)[nH]c2c1)c1ccccc1C(=O)N1CCOCC1
pIC50 [2]: < 4.52

O=C(Nc1ccc2nc([S@@+]([O-])Cc3ccc(Cl)cc3)sc2c1)c1ccccc1C(=O)N1CCOCC1
pIC50 [2]: < 4.52

O=C(Nc1ccc2nc(SCc3ccc(Cl)cc3)sc2c1)c1ccccc1C(=O)N1CCCC1
pIC50 [2]: < 4.52

CC(Sc1nc2ccc(NC(=O)c3ccccc3C(=O)N3CCOCC3)cc2s1)c1ccc(Cl)cc1 (stereo not drawn)
pIC50 [2]: 4.77

O=C(Nc1ccc2nc([S@+]([O-])Cc3ccc(Cl)cc3)sc2c1)c1ccccc1C(=O)N1CCOCC1
pIC50 [2]: < 4.52
